This note sets out measurements from ChEMBL document CHEMBL1201862, “PubChem BioAssay data set” (2004).

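Assay format: 96-well plates, 48-hour exposure. GI50 marks 50% less growth.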 Calls of active or inactive are those of the source. Rule as the data show it: active = GI50 up to about 1.1 µM and inactive = higher.

Some test systems named below: CAKI-1; CCRF-CEM; COLO 205; HCT-116; HOP-92; Hs-578T; LOX IMVI; M14; MDA-N; NCI-H23; NCI-H460; NCI-H522; SF-295; SK-OV-3; SNB-19; SNB-75; SW-620; T47D; UACC-257; UO-31.
What all share (assay): inhibition of tumour cell growth, NCI panel, 48 h

As for `CC(=O)Nc1ccc(Nc2nc(=O)[nH]c(=O)[nH]2)cc1`, the GI50 with CAKI-1, with CCRF-CEM, in the assay with COLO 205, with HCT-116, in the assay on HOP-92 and with Hs-578T was > 100 µM (inactive) each time. For the same compound, the GI50 with LOX IMVI, in the assay with M14, in the assay with MDA-N, with NCI-H23, with NCI-H460 and in the assay on NCI-H522 was > 100 µM (inactive) in each case. The GI50 with SF-295, in the assay with SK-OV-3, in the assay on SNB-19, in the assay on SNB-75, in the assay on SW-620 and in the assay on T47D was > 100 µM (inactive) throughout. The GI50 in the assay on UACC-257 was > 100 µM (inactive); in the assay on UO-31, 28.6 µM (inactive).
In the case of `CCOC(=O)c1c(Nc2ccccc2)sc2cccnc12`, the GI50 in the assay on CAKI-1 was 37.2 µM (inactive); with CCRF-CEM, 10.5 µM (inactive); in the assay with COLO 205, 0.853 µM (active); in the assay with HCT-116 it was 5.92 µM (inactive); in the assay on HOP-92 it was 1.9 µM (inactive); in the assay with Hs-578T, 35.3 µM (inactive). Besides, the GI50 is 18.2 µM (inactive) in the assay with LOX IMVI; 4.49 µM (inactive) with M14; 6.73 µM (inactive) in the assay with MDA-N; 30.3 µM (inactive) in the assay on NCI-H23; 2.25 µM (inactive) in the assay on NCI-H460; 21 µM (inactive) in the assay with NCI-H522. Moreover, the GI50 with SF-295 was 21.4 µM (inactive); in the assay with SK-OV-3, 36 µM (inactive); with SNB-19, 7.66 µM (inactive); with SNB-75 it was 19.9 µM (inactive); with SW-620, 24 µM (inactive); in the assay on T47D it was 28 µM (inactive). Besides, the GI50 with UACC-257 was 5.35 µM (inactive); with UO-31 it was 1.94 µM (inactive).
Consider `O=[N+]([O-])c1cc(CCl)ccc1CCl`, for which the GI50 is 1.35 µM (inactive) in the assay on CAKI-1; 0.504 µM (active) in the assay with CCRF-CEM; 1.71 µM (inactive) in the assay with COLO 205; 1.69 µM (inactive) with HCT-116; 1.76 µM (inactive) in the assay with HOP-92; 2.72 µM (inactive) in the assay with Hs-578T. For the same compound, the GI50 in the assay with LOX IMVI is 1.85 µM (inactive); in the assay with M14, 1.74 µM (inactive); with MDA-N, 1.87 µM (inactive); in the assay on NCI-H23 it was 2.16 µM (inactive); in the assay with NCI-H460 it was 3.44 µM (inactive); in the assay with NCI-H522 it was 1.73 µM (inactive). Also, the GI50 with SF-295 was 6.82 µM (inactive); with SK-OV-3, 13.3 µM (inactive); in the assay on SNB-19 it was 1.89 µM (inactive); in the assay on SNB-75 it was 2.13 µM (inactive); in the assay with SW-620, 2.17 µM (inactive); with T47D it was 0.676 µM (active). For the same compound, the GI50 with UACC-257 is 3.07 µM (inactive); in the assay with UO-31 it was 1.66 µM (inactive).
With `CC(C)C(C/C=C1/CC(CO)(COC(=O)C(C)(C)C)OC1=O)C(C)C` (stereo not given), the GI50 was 3.3 µM (inactive) in the assay on CAKI-1; 12.1 µM (inactive) with CCRF-CEM; 0.0678 µM (active) in the assay on COLO 205; 14.3 µM (inactive) in the assay with HCT-116; 10.4 µM (inactive) with HOP-92; 0.735 µM (active) in the assay with Hs-578T. Further, the GI50 in the assay on LOX IMVI was 12.3 µM (inactive); with M14, 11.7 µM (inactive); with MDA-N, 4.3 µM (inactive); in the assay with NCI-H23, 9.51 µM (inactive); with NCI-H460, 7.76 µM (inactive); in the assay on NCI-H522, 12.6 µM (inactive). Also, the GI50 was 2.61 µM (inactive) in the assay on SF-295; 16.7 µM (inactive) in the assay on SK-OV-3; 12.9 µM (inactive) in the assay on SNB-19; 5.45 µM (inactive) with SNB-75; 3.31 µM (inactive) in the assay with SW-620; 4.52 µM (inactive) with T47D. The GI50 in the assay on UACC-257 is 16.8 µM (inactive); in the assay on UO-31 it was 4.07 µM (inactive).
As for `O=C1Nc2ccccc2/C1=N/NC(=S)Nc1ccc(Cl)cc1`, the GI50 was 11.3 µM (inactive) in the assay on CAKI-1; 22.8 µM (inactive) in the assay with CCRF-CEM; 40.8 µM (inactive) in the assay with COLO 205; 24.9 µM (inactive) with HCT-116; 51.4 µM (inactive) in the assay on HOP-92; > 100 µM (inactive) with Hs-578T. Further, the GI50 was 27.7 µM (inactive) in the assay on LOX IMVI; 15 µM (inactive) in the assay on M14; 63.7 µM (inactive) in the assay with MDA-N; 57.4 µM (inactive) with NCI-H23; 15.5 µM (inactive) in the assay on NCI-H460; 57 µM (inactive) with NCI-H522. The GI50 was 23.7 µM (inactive) in the assay on SF-295; 38.5 µM (inactive) with SK-OV-3; 41.8 µM (inactive) in the assay with SNB-19; 33 µM (inactive) in the assay on SNB-75; 29.4 µM (inactive) in the assay on SW-620; 83 µM (inactive) in the assay on T47D. The GI50 is 15.2 µM (inactive) with UACC-257 and 38.8 µM (inactive) in the assay with UO-31.
With `COC(=O)Nc1nc2cc(S(=O)(=O)n3nnc4ccccc43)ccc2[nH]1`, the GI50 with CAKI-1 was 54.2 µM (inactive); in the assay with CCRF-CEM, > 100 µM (inactive); in the assay with COLO 205 it was > 100 µM (inactive); in the assay on HCT-116, 53.8 µM (inactive); with HOP-92, 14.5 µM (inactive); with Hs-578T it was 21.3 µM (inactive). Further, the GI50 with LOX IMVI is > 100 µM (inactive); in the assay with M14 it was > 100 µM (inactive); in the assay on MDA-N it was > 100 µM (inactive); with NCI-H23 it was 41.7 µM (inactive); with NCI-H460, > 100 µM (inactive); in the assay on NCI-H522 it was 36.8 µM (inactive). Also, the GI50 with SF-295 was 21.4 µM (inactive); in the assay with SK-OV-3 it was 17.1 µM (inactive); with SNB-19 it was 29.9 µM (inactive); with SNB-75, 6.62 µM (inactive); in the assay with SW-620, > 100 µM (inactive); in the assay on T47D, 37.8 µM (inactive). The results for the GI50 in the assay with UACC-257 and with UO-31 were 5.61 µM (inactive) and > 100 µM (inactive), respectively.
Consider `Cc1ccc(C(=O)O)c(CC2Cc3c(C)cccc3C2=O)c1` (stereo not given), for which the GI50 in the assay with CAKI-1, in the assay on CCRF-CEM, in the assay on COLO 205, in the assay on HCT-116, with HOP-92 and in the assay with Hs-578T was > 100 µM (inactive) each time. Moreover, the GI50 with LOX IMVI is 90.4 µM (inactive); with M14, > 100 µM (inactive); with MDA-N, > 100 µM (inactive); in the assay on NCI-H23 it was > 100 µM (inactive); with NCI-H460 it was > 100 µM (inactive); in the assay on NCI-H522, > 100 µM (inactive). The GI50 with SF-295, in the assay on SK-OV-3, in the assay on SNB-19, in the assay on SNB-75, in the assay with SW-620 and in the assay with T47D was > 100 µM (inactive) each time. For the same compound, the GI50 with UACC-257 and in the assay with UO-31 was > 100 µM (inactive) throughout.
On to `COC(=O)C1C(OC(=O)c2ccccc2)CC2CCC1N2C(N)=O` (stereo not given), for which the GI50 in the assay with CAKI-1, in the assay with CCRF-CEM, with COLO 205, in the assay on HCT-116, with HOP-92 and in the assay with Hs-578T was > 100 µM (inactive) each time. In addition, the GI50 with LOX IMVI, with M14, in the assay with MDA-N, with NCI-H23, with NCI-H460 and in the assay on NCI-H522 was > 100 µM (inactive) throughout. Besides, the GI50 in the assay with SF-295, with SK-OV-3, with SNB-19, in the assay on SNB-75, in the assay on SW-620 and with T47D was > 100 µM (inactive) throughout. The GI50 in the assay with UACC-257 and with UO-31 was > 100 µM (inactive) in each case.
As to `COc1cccc2cc(C(=O)NC34CC5CC(CC(C5)C3)C4)c(=N)oc12`, the GI50 in the assay on CAKI-1 was 99.5 µM (inactive); in the assay on CCRF-CEM, 8.04 µM (inactive); with COLO 205, 58.3 µM (inactive); in the assay on HCT-116 it was 52.1 µM (inactive); with HOP-92, > 36.2 µM (inactive); in the assay on Hs-578T, 34 µM (inactive). The GI50 with LOX IMVI is > 52.8 µM (inactive); in the assay on M14, > 100 µM (inactive); in the assay with MDA-N, > 100 µM (inactive); in the assay on NCI-H23 it was > 100 µM (inactive); in the assay on NCI-H460, > 89.7 µM (inactive); with NCI-H522, 23.4 µM (inactive). For the same compound, the GI50 in the assay on SF-295 is 68.5 µM (inactive); with SK-OV-3, 58.6 µM (inactive); in the assay on SNB-19, 73.8 µM (inactive); with SNB-75 it was 44.6 µM (inactive); in the assay with SW-620, 49.9 µM (inactive); in the assay on T47D it was 18.2 µM (inactive). The GI50 was > 89.3 µM (inactive) in the assay on UACC-257 and 2.67 µM (inactive) with UO-31.
In the case of `Cc1cc2nc(CC(C(F)(F)F)C(F)(F)F)oc2cc1C`, the GI50 is 2.07 µM (inactive) in the assay on CAKI-1; 0.016 µM (active) in the assay with CCRF-CEM; 1.54 µM (inactive) in the assay on COLO 205; 1 µM (active) with HCT-116; 7.5 µM (inactive) with HOP-92; 1.83 µM (inactive) with Hs-578T. The GI50 was 0.209 µM (active) in the assay with LOX IMVI; 1.07 µM (active) in the assay on M14; 1.91 µM (inactive) with MDA-N; 1.37 µM (inactive) in the assay with NCI-H23; 3.77 µM (inactive) in the assay on NCI-H460; 0.184 µM (active) in the assay on NCI-H522. The GI50 was 4.76 µM (inactive) in the assay with SF-295; 14.1 µM (inactive) in the assay with SK-OV-3; 5.09 µM (inactive) in the assay on SNB-19; 1.61 µM (inactive) in the assay on SNB-75; 0.608 µM (active) in the assay with SW-620; 0.308 µM (active) with T47D. In addition, the figures for the GI50 in the assay with UACC-257 and with UO-31 were 4.46 µM (inactive) and 7.69 µM (inactive), respectively.
